Measured values as given in patent publication US20240083857A1, “2-Methyl-Quinazolines” (Bayer Pharma Aktiengesellschaft, priority 2017, published 2024).

Experiments:
[1] = target: K-Ras^G12C : hSOS1 interaction (Homo sapiens, UniProt Q07889); assay: Biochemical assay 1: K-Ras^G12C interaction assay with hSOS1 (HTRF); assay type: binding; settings: read-out: Assay 1 (KRAS-SOS Interaction) activity expressed as IC50
[2] = target: human SOS1 (loading of human K-Ras^G12C-GDP with fluorescent GTP-analog) (Homo sapiens, UniProt Q07889); assay: Biochemical assay 3: K-Ras^G12C activation assay by hSOS1 (HTRF); settings: no GTP; for IC50: read-out: Assay 3 (KRAS-Activation by SOS no GTP) activity expressed as IC50; for inhibition at 20 µM: read-out: Assay 3 (KRAS-Activation by SOS no GTP) activity expressed as % inhibition at 20 μM

In the case of `COc1cc2nc(C)nc(NC(C)c3csc(Br)c3)c2cc1OC` (centres unmarked) [Example 239, N-[1-(5-bromothiophen-3-yl)ethyl]-6,7-dimethoxy-2-methylquinazolin-4-amine], the IC50 [1] is reported as 7070 nM and the IC50 [2] is reported as 14300 nM.
`COc1cc2nc(C)nc(NC(C)c3ccc(-c4ccccc4C(N)=O)s3)c2cc1OC` (centres unmarked) [Example 240, 2-(5-{1-[(6,7-dimethoxy-2-methylquinazolin-4-yl)amino]ethyl}thiophen-2-yl)benzamide] was tested, and the IC50 [1] was 3210 nM and the IC50 [2] was 7570 nM.
`COc1cc2nc(C)nc(NC(C)c3ccc(-c4cccc(C(N)=O)c4)s3)c2cc1OC` (centres unmarked) [Example 241, 3-(5-{1-[(6,7-dimethoxy-2-methylquinazolin-4-yl)amino]ethyl}thiophen-2-yl)benzamide] was tested, and the IC50 [1] was 1120 nM and the IC50 [2] was 1310 nM.
In the case of `COc1cc2nc(C)nc(NC(C)c3ccc(-c4ccc(C(N)=O)cc4)s3)c2cc1OC` (centres unmarked) [Example 242, 4-(5-{1-[(6,7-dimethoxy-2-methylquinazolin-4-yl)amino]ethyl}thiophen-2-yl)benzamide], the IC50 [1] is reported as 1830 nM and the IC50 [2] is reported as 3010 nM.
Compound `COc1cc2nc(C)nc(NC(C)c3ccc(-c4ccccc4N)s3)c2cc1OC` (centres unmarked) [Example 243, N-{1-[5-(2-aminophenyl)thiophen-2-yl]ethyl}-6,7-dimethoxy-2-methylquinazolin-4-amine] has an IC50 [1] of 252 nM and an IC50 [2] of 418 nM.
In the case of `COc1cc2nc(C)nc(NC(C)c3ccc(-c4ccccc4CO)s3)c2cc1OC` (centres unmarked) [Example 244, [2-(5-{1-[(6,7-dimethoxy-2-methylquinazolin-4-yl)amino]ethyl}thiophen-2-yl)phenyl]methanol], the IC50 [1] is reported as 282 nM and the IC50 [2] is reported as 444 nM.
Work on `COc1cc2nc(C)nc(NC(C)c3ccc(-c4ccccc4C#N)s3)c2cc1OC` (centres unmarked) [Example 245, 2-(5-{1-[(6,7-dimethoxy-2-methylquinazolin-4-yl)amino]ethyl}thiophen-2-yl)benzonitrile] yielded an IC50 [1] of 592 nM and an IC50 [2] of 918 nM.
Compound `COc1cc2nc(C)nc(NC(C)c3ccc(-c4cccc5cn[nH]c45)s3)c2cc1OC` (centres unmarked) [Example 246, N-{1-[5-(1H-indazol-7-yl)thiophen-2-yl]ethyl}-6,7-dimethoxy-2-methylquinazolin-4-amine] has an IC50 [1] of 7590 nM and an inhibition at 20 µM [2] of 44%.
For `COc1cc2nc(C)nc(NC(C)c3ccc(-c4cccc5[nH]ncc45)s3)c2cc1OC` (centres unmarked) [Example 247, N-{1-[5-(1H-indazol-4-yl)thiophen-2-yl]ethyl}-6,7-dimethoxy-2-methylquinazolin-4-amine], the IC50 [1] was 591 nM and the IC50 [2] was 2700 nM.
In the case of `C=Cc1ccccc1-c1ccc(C(C)Nc2nc(C)nc3cc(OC)c(OC)cc23)s1` (centres unmarked) [Example 248, N-{1-[5-(2-ethenylphenyl)thiophen-2-yl]ethyl}-6,7-dimethoxy-2-methylquinazolin-4-amine], the IC50 [1] is reported as 1490 nM and the IC50 [2] is reported as 8430 nM.
For `COc1cc2nc(C)nc(NC(C)c3ccc(-c4cnn(CC(N)=O)c4)s3)c2cc1OC` (centres unmarked) [Example 249, 2-[4-(5-{1-[(6,7-dimethoxy-2-methylquinazolin-4-yl)amino]ethyl}thiophen-2-yl)-1H-pyrazol-1-yl]acetamide], the IC50 [1] was 6100 nM and the IC50 [2] was 8790 nM.
`CNCc1ccccc1-c1ccc(C(C)Nc2nc(C)nc3cc(OC)c(OC)cc23)s1` (centres unmarked) [Example 250, 6,7-dimethoxy-2-methyl-N-[1-(5-{2-[(methylamino)methyl]phenyl}thiophen-2-yl)ethyl]quinazolin-4-amine] showed an IC50 [1] of 50 nM and an IC50 [2] of 70.4 nM.
In the case of `COc1cc2nc(C)nc(NC(C)c3csc(-c4cnn(CCO)c4)c3)c2cc1OC` (centres unmarked) [Example 251, 2-[4-(4-{1-[(6,7-dimethoxy-2-methylquinazolin-4-yl)amino]ethyl}thiophen-2-yl)-1H-pyrazol-1-yl]ethanol], the IC50 [1] is reported as 4570 nM and the inhibition at 20 µM [2] is reported as 52%.
`COc1cc2nc(C)nc(NC(C)c3ccc(-c4ccccc4CN)s3)c2cc1OC` (centres unmarked) [Example 252, N-[1-{5-[2-(aminomethyl)phenyl]thiophen-2-yl}ethyl]-6,7-dimethoxy-2-methylquinazolin-4-amine] was tested, and the IC50 [1] was 80.2 nM and the IC50 [2] was 103 nM.
With `COc1cc2nc(C)nc(NC(C)c3csc(-c4cnc5n4CCC5)c3)c2cc1OC` (centres unmarked) [Example 253, N-{1-[5-(6,7-dihydro-5H-pyrrolo[1,2-a]imidazol-3-yl)thiophen-3-yl]ethyl}-6,7-dimethoxy-2-methylquinazolin-4-amine] the IC50 [1] was 1310 nM and the IC50 [2] was 5800 nM.
`COc1cc2nc(C)nc(NC(C)c3csc(-c4cnn(CCN5CCCC5)c4)c3)c2cc1OC` (centres unmarked) [Example 254, 6,7-dimethoxy-2-methyl-N-[1-(5-{1-[2-(pyrrolidin-1-yl)ethyl]-1H-pyrazol-4-yl}thiophen-3-yl)ethyl]quinazolin-4-amine] gave an IC50 [1] of 814 nM and an IC50 [2] of 3450 nM.
`COc1cc2nc(C)nc(NC(C)c3csc(-c4ccc(F)cc4CN)c3)c2cc1OC` (centres unmarked) [Example 255, N-[1-{5-[2-(aminomethyl)-4-fluorophenyl]thiophen-3-yl}ethyl]-6,7-dimethoxy-2-methylquinazolin-4-amine] showed an IC50 [1] of 248 nM and an IC50 [2] of 390 nM.
`COc1cc2nc(C)nc(N[C@H](C)c3cccc(-c4cnn(CCO)c4)c3)c2cc1OC` [Example 256, 2-[4-(3-{(1R)-1-[(6,7-dimethoxy-2-methylquinazolin-4-yl)amino]ethyl}phenyl)-1H-pyrazol-1-yl]ethanol] showed an IC50 [1] of 473 nM and an IC50 [2] of 1350 nM.
`COc1cc2nc(C)nc(N[C@H](C)c3cccc(-c4cnn(CCN5CCCC5)c4)c3)c2cc1OC` [Example 257, 6,7-dimethoxy-2-methyl-N-[(1R)-1-(3-{1-[2-(pyrrolidin-1-yl)ethyl]-1H-pyrazol-4-yl}phenyl)ethyl]quinazolin-4-amine] showed an IC50 [1] of 363 nM and an IC50 [2] of 852 nM.
